# From ChEMBL document CHEMBL1201862, “PubChem BioAssay data set” (2004)
# The source made the active and inactive calls.
# Experiments:
# [1] = biological target: Disintegrin and metalloproteinase domain-containing protein 17 (Homo sapiens, UniProt P78536); assay: exosite inhibitors of ADAM17, dose response, biochemical (AID 743260)
# [2] = inhibition of ADAM10 peptide cleavage – biochemical, FRET peptide substrate, recombinant human ADAM10, selectivity assay for ADAM17 exosite inhibitor project, dose response (AID 743259);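 note: ADAM10 enzyme cleaving a FRET peptide substrate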
# cells [3] = type: functional, cell-based
# [4] = viability loss in HepG2 hepatoma cells – cell-based, ATP luminescence, cherry-pick, activator set 2, cytotoxicity control, dose response (AID 1053143); type: functional
# cells [5] = type: functional, cell-based; remark: listed apart in the source
# [6] = inhibitors of TRPM1-promoter reporter in SK-MEL-5 – cell-based, luciferase, dry powder, set 8, MITF inhibitor project, dose response (AID 624430); type: functional
# [7] = MITF Orthogonal Assay: SK-MEL-5 CTG Assay Measured in Cell-Based System Using Plate Reader - 2084-02_Inhibitor_Dose_DryPowder_Activity_Set7.; type: functional
# [8] = MITF: Counter assay: A375 proliferation Measured in Cell-Based System Using Plate Reader - 2084-03_Inhibitor_Dose_DryPowder_Activity_Set8.; type: functional; conditions: A-375
# [9] = biological target: T1, Nuclear receptor subfamily 0 group B member 1 (Homo sapiens, UniProt P51843); type: functional, cell-based;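 note: HEK293T cells transfected with SF-1 and DAX-1 plus StAR promoter luciferase reporter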
# T1 sequence (P51843 whole entry): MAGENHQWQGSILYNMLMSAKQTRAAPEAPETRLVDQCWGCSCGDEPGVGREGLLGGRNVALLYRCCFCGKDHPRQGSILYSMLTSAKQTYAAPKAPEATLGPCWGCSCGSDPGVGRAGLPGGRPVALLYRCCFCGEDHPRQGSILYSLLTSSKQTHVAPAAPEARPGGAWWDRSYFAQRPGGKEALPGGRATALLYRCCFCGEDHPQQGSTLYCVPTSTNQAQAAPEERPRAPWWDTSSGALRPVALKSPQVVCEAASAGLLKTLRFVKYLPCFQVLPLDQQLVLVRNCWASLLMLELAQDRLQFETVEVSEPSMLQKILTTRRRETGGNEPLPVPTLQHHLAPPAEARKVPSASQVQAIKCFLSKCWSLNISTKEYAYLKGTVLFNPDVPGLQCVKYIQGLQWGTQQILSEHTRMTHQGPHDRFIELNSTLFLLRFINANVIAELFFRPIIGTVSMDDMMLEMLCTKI
# [10] = biological target: T2, High affinity choline transporter 1 (Homo sapiens, UniProt Q9GZV3); assay: human choline transporter blockers, potency – cell-based, 5-point CRC, membrane potential dye, dose response (AID 504840); type: functional
# T2 sequence (Q9GZV3 whole entry): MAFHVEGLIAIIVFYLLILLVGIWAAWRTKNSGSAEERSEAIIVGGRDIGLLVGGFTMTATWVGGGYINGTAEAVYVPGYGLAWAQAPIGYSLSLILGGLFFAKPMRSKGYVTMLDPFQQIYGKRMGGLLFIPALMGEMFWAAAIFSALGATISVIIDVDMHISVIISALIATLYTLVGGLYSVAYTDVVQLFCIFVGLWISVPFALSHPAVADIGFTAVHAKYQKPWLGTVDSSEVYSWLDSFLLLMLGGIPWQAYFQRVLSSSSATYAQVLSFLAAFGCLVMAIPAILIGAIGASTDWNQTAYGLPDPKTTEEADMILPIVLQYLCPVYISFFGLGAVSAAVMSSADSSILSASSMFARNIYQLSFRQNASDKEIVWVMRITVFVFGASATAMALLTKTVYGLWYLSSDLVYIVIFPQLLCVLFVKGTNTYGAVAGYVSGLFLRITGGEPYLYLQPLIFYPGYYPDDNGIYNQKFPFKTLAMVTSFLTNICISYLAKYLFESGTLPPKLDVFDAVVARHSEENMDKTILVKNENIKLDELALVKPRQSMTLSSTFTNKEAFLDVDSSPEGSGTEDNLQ
# cells [11] = type: functional, cell-based; remark: listed apart in the source
# [12] = T. cruzi growth inhibition in host cells, dose response, cell-based, plate reader, dry powder, set 2 (AID 652275); type: functional
# Galanin receptor type 3 = Galanin receptor type 3 (Homo sapiens, UniProt O60755); assay: Fluorescence-based cell-based primary high throughput dose response assay to identify antagonists of the Galanin Receptor 3 (GalR3).; type: functional
# Sequence of Galanin receptor type 3 (O60755 whole entry): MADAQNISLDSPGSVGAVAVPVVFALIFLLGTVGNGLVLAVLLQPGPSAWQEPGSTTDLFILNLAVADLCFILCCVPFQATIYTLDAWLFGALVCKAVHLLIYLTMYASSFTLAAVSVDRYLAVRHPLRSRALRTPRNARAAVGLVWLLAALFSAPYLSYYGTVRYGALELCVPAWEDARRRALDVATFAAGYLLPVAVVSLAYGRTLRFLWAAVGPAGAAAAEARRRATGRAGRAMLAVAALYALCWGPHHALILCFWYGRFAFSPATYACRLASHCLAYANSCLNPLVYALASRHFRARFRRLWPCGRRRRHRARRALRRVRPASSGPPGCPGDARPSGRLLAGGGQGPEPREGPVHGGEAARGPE
# [13] = viability loss of HPDE-C7K cells – cell-based, fluorescence, HTS, primary screen (AID 431); type: functional; conditions: Homo sapiens
# [14] = HPDE-C7 pancreatic duct cell viability loss – fluorescence, HTS (AID 430); type: functional, cell-based; conditions: Homo sapiens
# cells [15] = type: functional, cell-based; conditions: HEK-CNG
# [16] = biological target: T3, Replicative DNA helicase DnaB (Mycobacterium tuberculosis, UniProt P9WMR3); assay: DnaB intein splicing inhibitors, dose response, biochemical, cell-free fluorescence (AID 449749); type: functional
# T3 sequence (P9WMR3 whole entry): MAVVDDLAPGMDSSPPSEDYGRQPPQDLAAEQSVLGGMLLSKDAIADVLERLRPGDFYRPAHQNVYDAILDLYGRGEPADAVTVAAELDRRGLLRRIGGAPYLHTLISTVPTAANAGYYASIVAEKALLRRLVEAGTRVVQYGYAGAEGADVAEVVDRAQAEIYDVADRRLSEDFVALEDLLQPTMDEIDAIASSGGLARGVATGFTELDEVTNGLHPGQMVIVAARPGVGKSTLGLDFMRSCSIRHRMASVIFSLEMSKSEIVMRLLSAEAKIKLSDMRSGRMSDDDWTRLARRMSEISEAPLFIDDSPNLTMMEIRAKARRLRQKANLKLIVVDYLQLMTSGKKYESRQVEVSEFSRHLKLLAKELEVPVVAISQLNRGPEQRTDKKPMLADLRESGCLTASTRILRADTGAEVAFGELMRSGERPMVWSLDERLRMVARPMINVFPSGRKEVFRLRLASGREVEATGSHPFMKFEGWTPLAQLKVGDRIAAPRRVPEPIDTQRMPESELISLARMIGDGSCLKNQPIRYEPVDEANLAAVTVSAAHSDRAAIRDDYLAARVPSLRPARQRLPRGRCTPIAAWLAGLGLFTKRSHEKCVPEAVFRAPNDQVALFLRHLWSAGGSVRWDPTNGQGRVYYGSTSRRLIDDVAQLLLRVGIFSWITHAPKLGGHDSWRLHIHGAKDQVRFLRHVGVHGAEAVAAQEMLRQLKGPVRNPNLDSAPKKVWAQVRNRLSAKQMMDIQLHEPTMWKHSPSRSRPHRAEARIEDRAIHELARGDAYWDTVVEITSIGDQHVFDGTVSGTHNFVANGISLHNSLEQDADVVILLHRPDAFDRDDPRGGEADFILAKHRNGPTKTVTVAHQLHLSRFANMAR
# Protein RecA = biological target: T4, Protein RecA (Mycobacterium tuberculosis, UniProt P9WHJ3); assay: Fluorescence Cell-Free Homogeneous Dose Retest to Identify Inhibitors of RecA-Intein Splicing Activity. [Related pubchem assays (depositor defined):AID2097, AID2223, AID489010, AID492950]; type: functional
# T4 sequence (P9WHJ3 whole entry): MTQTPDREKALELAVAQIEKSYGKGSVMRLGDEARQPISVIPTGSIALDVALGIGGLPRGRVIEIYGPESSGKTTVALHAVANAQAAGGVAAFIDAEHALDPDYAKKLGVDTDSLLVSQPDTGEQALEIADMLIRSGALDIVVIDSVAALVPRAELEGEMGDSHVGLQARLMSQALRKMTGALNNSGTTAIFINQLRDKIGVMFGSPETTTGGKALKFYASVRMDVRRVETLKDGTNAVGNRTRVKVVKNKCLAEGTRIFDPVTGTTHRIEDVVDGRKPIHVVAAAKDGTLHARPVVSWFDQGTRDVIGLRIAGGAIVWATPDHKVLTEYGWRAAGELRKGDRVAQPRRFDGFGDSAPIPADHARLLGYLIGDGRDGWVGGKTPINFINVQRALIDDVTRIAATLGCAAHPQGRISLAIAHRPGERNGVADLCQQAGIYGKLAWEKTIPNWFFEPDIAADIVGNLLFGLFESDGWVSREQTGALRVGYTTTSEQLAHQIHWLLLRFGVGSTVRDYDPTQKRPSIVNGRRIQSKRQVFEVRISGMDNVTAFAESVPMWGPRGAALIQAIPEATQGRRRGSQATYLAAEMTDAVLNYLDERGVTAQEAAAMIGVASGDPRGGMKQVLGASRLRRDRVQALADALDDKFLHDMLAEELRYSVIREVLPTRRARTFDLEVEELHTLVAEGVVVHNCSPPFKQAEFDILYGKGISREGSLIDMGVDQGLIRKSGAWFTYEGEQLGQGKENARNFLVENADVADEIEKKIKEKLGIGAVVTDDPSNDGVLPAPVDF
# [17] = general cell-killing toxicity readout – plate reader, dry powder samples, cytotoxicity control for PAX8 inhibitor project, dose response (AID 743021); type: functional, cell-based
# Paired box protein Pax-8 = Paired box protein Pax-8 (Homo sapiens, UniProt Q06710); assay: PAX8 transcriptional activity inhibition in RMG-I – RMG-I cells, luciferase, cherry-pick, dose response (AID 687027); type: functional, cell-based;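 note: luciferase reporter driven by Pax8 target thyroperoxidase promoter measured by SteadyGlo luminescence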
# Sequence of Paired box protein Pax-8 (Q06710 whole entry): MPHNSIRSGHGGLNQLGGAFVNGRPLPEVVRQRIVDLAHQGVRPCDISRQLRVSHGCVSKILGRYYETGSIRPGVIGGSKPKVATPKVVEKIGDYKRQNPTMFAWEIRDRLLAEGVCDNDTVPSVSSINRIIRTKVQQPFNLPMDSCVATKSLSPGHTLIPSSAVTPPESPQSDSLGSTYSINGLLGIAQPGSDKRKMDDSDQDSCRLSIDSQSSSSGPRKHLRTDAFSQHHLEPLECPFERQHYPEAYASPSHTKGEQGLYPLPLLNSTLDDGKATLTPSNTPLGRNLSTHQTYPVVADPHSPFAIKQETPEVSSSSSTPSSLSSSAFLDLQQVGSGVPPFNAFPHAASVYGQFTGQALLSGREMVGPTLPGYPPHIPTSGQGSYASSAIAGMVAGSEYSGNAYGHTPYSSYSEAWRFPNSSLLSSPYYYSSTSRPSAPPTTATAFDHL
# [18] = biological target: T5, Sentrin-specific protease 8 (Homo sapiens, UniProt Q96LD8); type: functional
# T5 sequence (Q96LD8 whole entry): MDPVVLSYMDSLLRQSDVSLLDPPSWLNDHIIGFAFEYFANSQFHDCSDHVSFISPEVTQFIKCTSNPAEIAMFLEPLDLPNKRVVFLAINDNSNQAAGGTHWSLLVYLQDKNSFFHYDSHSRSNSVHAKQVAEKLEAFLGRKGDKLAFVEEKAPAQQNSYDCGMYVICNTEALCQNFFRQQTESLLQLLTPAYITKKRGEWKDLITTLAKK
# [19] = biological target: T5, Sentrin-specific protease 8; type: functional; remark: listed apart in the source
# Caspase-3 = biological target: T6, Caspase-3 (Homo sapiens, UniProt P42574); assay: Dose-response confirmation of uHTS inhibitor hits of Sentrin-Specific Protease 8 in a Caspase-3 Fluorescence assay.; type: functional
# T6 sequence (P42574 whole entry): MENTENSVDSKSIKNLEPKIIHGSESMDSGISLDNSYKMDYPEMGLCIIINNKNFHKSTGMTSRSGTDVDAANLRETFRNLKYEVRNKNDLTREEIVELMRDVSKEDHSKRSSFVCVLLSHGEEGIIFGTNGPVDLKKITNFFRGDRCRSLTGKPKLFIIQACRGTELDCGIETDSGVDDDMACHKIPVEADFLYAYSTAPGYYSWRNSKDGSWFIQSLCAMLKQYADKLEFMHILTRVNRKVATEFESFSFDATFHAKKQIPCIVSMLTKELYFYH
# [20] = biological target: T7, Mannose-6-phosphate isomerase (Homo sapiens, UniProt P34949); assay: MPI inhibition at elevated mannose 6-phosphate – biochemical, fluorescence intensity, high mannose 6-phosphate, primary screen (AID 1220)
# T7 sequence (P34949 whole entry): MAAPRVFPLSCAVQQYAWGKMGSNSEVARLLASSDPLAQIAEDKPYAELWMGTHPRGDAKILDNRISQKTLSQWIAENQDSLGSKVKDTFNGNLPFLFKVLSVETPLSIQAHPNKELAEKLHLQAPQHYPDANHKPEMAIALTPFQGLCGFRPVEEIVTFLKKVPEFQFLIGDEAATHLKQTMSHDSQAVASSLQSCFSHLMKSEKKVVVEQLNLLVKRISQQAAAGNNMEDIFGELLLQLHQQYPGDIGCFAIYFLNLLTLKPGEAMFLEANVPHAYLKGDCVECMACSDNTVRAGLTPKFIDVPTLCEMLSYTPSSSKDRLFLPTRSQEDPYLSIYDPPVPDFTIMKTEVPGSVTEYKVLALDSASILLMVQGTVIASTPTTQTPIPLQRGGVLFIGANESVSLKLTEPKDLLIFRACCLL
# Sequence of Disintegrin and metalloproteinase domain-containing protein 17 (P78536 whole entry, the tested form may be a part): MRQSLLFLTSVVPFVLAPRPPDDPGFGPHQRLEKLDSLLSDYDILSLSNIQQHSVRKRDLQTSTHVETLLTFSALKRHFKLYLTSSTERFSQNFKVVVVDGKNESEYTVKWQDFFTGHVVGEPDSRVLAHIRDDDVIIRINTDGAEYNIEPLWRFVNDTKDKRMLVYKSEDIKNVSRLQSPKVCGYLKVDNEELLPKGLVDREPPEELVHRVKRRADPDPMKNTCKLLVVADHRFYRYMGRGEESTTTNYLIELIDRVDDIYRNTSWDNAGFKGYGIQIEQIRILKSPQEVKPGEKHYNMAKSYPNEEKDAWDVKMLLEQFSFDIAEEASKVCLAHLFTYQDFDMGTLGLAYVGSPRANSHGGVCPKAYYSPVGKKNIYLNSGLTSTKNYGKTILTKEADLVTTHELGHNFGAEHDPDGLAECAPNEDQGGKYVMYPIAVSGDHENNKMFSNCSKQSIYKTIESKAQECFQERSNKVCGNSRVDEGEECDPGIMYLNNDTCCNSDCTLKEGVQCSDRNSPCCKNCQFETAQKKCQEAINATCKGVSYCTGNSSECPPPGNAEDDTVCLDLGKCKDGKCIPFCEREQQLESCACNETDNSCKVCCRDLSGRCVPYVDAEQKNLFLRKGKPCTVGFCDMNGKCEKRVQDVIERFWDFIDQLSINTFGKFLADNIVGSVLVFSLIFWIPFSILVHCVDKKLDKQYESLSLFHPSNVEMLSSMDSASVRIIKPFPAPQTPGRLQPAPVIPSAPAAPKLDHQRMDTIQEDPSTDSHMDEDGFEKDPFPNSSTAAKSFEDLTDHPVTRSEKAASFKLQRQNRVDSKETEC
structure (smiles),measurement,setting,value
CC(C)c1cccc(-c2csc(C(O)c3cccc(Cl)c3)n2)c1 (configuration not stated),IC50,[1],> 69.5 µM (inactive)
same,IC50,[2],42.8 µM (inactive)
COc1cccc(C(Nc2ccccc2)c2ccc3ccc(C)nc3c2O)c1 (configuration not stated),IC50,[1],> 69.2 µM (inactive)
same,IC50,[2],18.5 µM (inactive)
COc1ccc2nc(NC(=O)c3cccs3)sc2c1,EC50,cells [3],7.18 µM (active)
same,AC50,[4],26 µM (active)
same,EC50,cells [5],> 350 µM (not active)
CC(C)N1CCN(C2=C(Nc3ccc(I)cc3)C(=O)c3ccccc3C2=O)CC1,AC50,[6],2.96 µM (active)
same,AC50,[7],10.8 µM (active)
same,AC50,[8],33.9 µM (active)
COc1ccccc1Nc1nnc(SCC2CCCCO2)s1 (configuration not stated),IC50,[9],> 0.834 µM (active)
same,IC50,[10],4.17 µM (active)
same,IC50,cells [11],> 67.5 µM (inactive)
CC(C)N1CC2(CN(Cc3cccc(F)c3)C2)Oc2c(NC(=O)c3ccncc3)cccc2C1=O,AC50,[12],0.41 µM (active)
CCn1c2ccccc2c2cc(C3C(C#N)=C(N)Oc4[nH]nc(COC)c43)ccc21 (configuration not stated),IC50,Galanin receptor type 3,> 29.9 µM (inactive)
same,EC50,[13],7.72 µM (active)
same,EC50,[14],7.03 µM (active)
same,EC50,cells [15],> 29.9 µM (inactive)
same,AC50,[16],> 380 µM (inconclusive)
same,EC50,Protein RecA,2.7 µM (active)
O=C(Nc1nnc(SCc2ccccc2F)s1)C1=COCCO1,IC50,[9],> 67.6 µM (inactive)
same,IC50,cells [11],> 67.6 µM (inactive)
CN(C)C(=O)c1cccc(-c2ccc([C@H]3[C@@H](CO)N4CCCCN(C(=O)C5CCC5)C[C@H]34)cc2)c1,AC50,[12],1.29 µM (active)
COc1ccc(-c2cc(CNc3nc(NC(C)C)nc4cc(-c5ccccc5)sc34)on2)cc1,AC50,[17],18.8 µM (active)
same,AC50,Paired box protein Pax-8,9.84 µM (active)
CCOC(=O)c1nn(-c2ccccc2C)c(=O)c2c(N)scc12,IC50,[18],4.12 µM (active)
same,IC50,[19],17.3 µM (active)
same,IC50,Caspase-3,93.3 µM (inactive)
same,IC50,[20],> 50 µM (not active)
same,AC50,[16],> 120 µM (inactive)
same,EC50,Protein RecA,11.4 µM (active)
NC(=O)c1ccc(NC(=O)C#Cc2ccccc2)cc1,AC50,[4],26 µM (active)
